Like-named read-outs stand apart in the source and are kept apart here.
Key:
[1] = Protocol: Weighed samples of material were treated with aliquots of specified solvents at ambient temperature. Samples were typically sonicated between additions to facilitate dissolution. Complete dissolution was observed through visual inspection. Solubility was calculated based on the total amount of solvent added to achieve complete dissolution and may be greater than the value reported due to incremental solvent addition and the inherent kinetics of dissolution. If dissolution was not observed, values are reported as “less than”. If dissolution was observed upon the first addition of solvent, values are reported as “greater than”.
• (a) Solubility estimated using solvent addition method via visual assessment of samples. Values are rounded to nearest whole number and reported as “<” if dissolution was not observed. • (b) non-cGMP samples.

[2] = Drying experiments on selected materials, solid form by XRPD; type: physicochemical
Text: Table 6 summarizes the drying conditions for selected materials. • (a) Temperature, RH, and duration of experiments are approximate.

[3] = 3 weeks slurry, gravimetric
Protocol: After approximately 24 hours, solids were isolated by centrifugation using eppendorf centrifuge tubes equipped with a 0.45 μm nylon filter. […] Equilibrium solubility of solids isolated were determined gravimetrically as follows. Measured aliquots of mother liquor solutions from the 3-week slurries were place in pre-weighed aluminum TGA pans. Subsequently, solvents were evaporated under ambient conditions or using vacuum. Remaining solids were weighed. • (a) Experiments were conducted for a total of ˜1 week and ˜3 weeks, both with solvent replacement after ˜1 day of slurrying. Solvent ratios (v/v) and duration of experiments are approximate.

Br.Br.CCC[C@H](N[C@H]1CCc2cc(F)cc(F)c2C1)C(=O)Nc1cn(C(C)(C)CNCC(C)(C)C)cn1 [dihydrobromide salt of Compound 1, dihydrobromide salt of (s)-2-(((s)-6,8-difluoro-1,2,3,4-tetrahydronaphthalen-2-yl)amino)-n-(1-(2-methyl-1-(neopentylamino)propan-2-yl)-1h-imidazol-4-yl)pentanamide]
Solubility Estimate (a) [1]: <1 mg/mL

Br.Br.CCC[C@H](N[C@H]1CCc2cc(F)cc(F)c2C1)C(=O)Nc1cn(C(C)(C)CNCC(C)(C)C)cn1 [Form F, (S)-2-(((S)-6,8-difluoro-1,2,3,4-tetrahydronaphthalen-2-yl)amino)-N-(1-(2-methyl-1-(neopentylamino)propan-2-yl)-1H-imidazol-4-yl)pentanamide]
XRPD Results after drying ([2]; VO, 75° C., 1 day): Consistent with Form D | XRPD Results after drying ([2]; VO, 77° C., 1 day): Consistent with Form F;

Br.Br.CCC[C@H](N[C@H]1CCc2cc(F)cc(F)c2C1)C(=O)Nc1cn(C(C)(C)CNCC(C)(C)C)cn1 [Form A, (S)-2-(((S)-6,8-difluoro-1,2,3,4-tetrahydronaphthalen-2-yl)amino)-N-(1-(2-methyl-1-(neopentylamino)propan-2-yl)-1H-imidazol-4-yl)pentanamide]
Solubility (b) ([3]; DMF/ACN (65/35), ambient): 10 mg/mL | Solubility (b) ([3]; DMF/IPA (60/40), ambient): 13 mg/mL | Solubility (b) ([3]; DMF/MIBK (85/15), ambient): 19 mg/mL | Solubility (b) ([3]; Dioxane/H2O (70/30), ambient): 24 mg/mL | Solubility (b) ([3]; EtOH/H2O (60/40), ambient): 36 mg/mL | Solubility (b) ([3]; H2O, ambient): 14 mg/mL | Solubility (b) ([3]; MEK/DMF (20/80), ambient): 17 mg/mL | Solubility (b) ([3]; MeOH (anhydrous), 2-8° C. (cold room)): 13 mg/mL | Solubility (b) ([3]; MeOH/Acetone (anhydrous) (50/50), ambient): 7 mg/mL | Solubility (b) ([3]; MeOH/EtOAc (anhydrous) (70/30), ambient): 6 mg/mL | Solubility (b) ([3]; MeOH/H2O (20/80), ambient): 17 mg/mL | Solubility (b) ([3]; NMP/Acetone (anhydrous) (85/15), ambient): 36 mg/mL | Solubility (b) ([3]; PG, ambient): 8 mg/mL | Solubility (b) ([3]; THF/H2O (85/15), ambient): 25 mg/mL

Br.Br.CCC[C@H](N[C@H]1CCc2cc(F)cc(F)c2C1)C(=O)Nc1cn(C(C)(C)CNCC(C)(C)C)cn1 [Form D, (S)-2-(((S)-6,8-difluoro-1,2,3,4-tetrahydronaphthalen-2-yl)amino)-N-(1-(2-methyl-1-(neopentylamino)propan-2-yl)-1H-imidazol-4-yl)pentanamide]
XRPD Results after drying ([2]; Dried on P2O5, RT, 17 days, RH at prep.: 3%, RH at run: 43%, cell continues: selected peaks slightly shifted): Consistent with Form D,

— US11905255B1, “Solid state forms of (S)-2-(((S)-6,8-difluoro-1,2,3,4-tetrahydronaphthalen-2-yl)amino)-N-(1-(2-methyl-1-(neopentylamino)propan-2-yl)-1H-imidazol-4-yl)pentanamide and uses thereof” (Pfizer Inc., priority 2019, dated 2024)
